These results are taken from ChEMBL document CHEMBL1201862, “PubChem BioAssay data set” (2004).

Test in all cases: NCI tumour cell line growth inhibition, 48 h
Experiment [1] relates to A549.
The subject of experiment [2] is SNB-19.
The subject of experiment [3] is Malme-3M.
Experiment [4] has as its system HCT-15.
For experiment [5], the system named is ACHN.
Experiment [6] has as its system NCI-H226.
For experiment [7], the system named is IGROV-1.
Experiment [8] concerns SK-MEL-28.
In experiment [9] the test system is NCI-H23.
The subject of experiment [10] is CCRF-CEM.
Experiment [11] relates to K562.
Experiment [12] concerns HOP-62.
The test system of experiment [13] is OVCAR-3.
In experiment [14] the test system is EKVX.
Experiment [15] has as its system CAKI-1.
The subject of experiment [16] is A498.

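Results reflect a 48-hour exposure of cells in 96-well plates to compound at five concentrations. GI50 is the concentration that inhibits growth by half.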 The source made the active and inactive calls. Rule as the data show it: active = GI50 up to about 1.1 µM and inactive = higher.

With `COc1cccc(NC(=O)CC(=O)N2N=C(N(CCC#N)c3ccccc3C)CC2c2ccccc2)c1` (stereo unspecified), the GI50 in experiment [1] is > 100 µM (inactive); in [2], > 100 µM (inactive); in experiment [3] it was > 100 µM (inactive); in experiment [4] it was above 100 µM; in experiment [5], > 100 µM (inactive); in [6] it was > 100 µM (inactive). Besides, the GI50 in [7], in [8], in experiment [9], in experiment [10], in experiment [11] and in experiment [12] was > 100 µM (inactive) each time. The GI50 in experiment [13], in experiment [14] and in experiment [15] was > 100 µM (inactive) throughout.

For the compound `[N-]=[N+]=NC(CBr)c1cn([C@H]2C[C@H](O)[C@@H](CO)O2)c(=O)[nH]c1=O` (stereo partly specified), the GI50 in experiment [1] was > 100 µM (inactive); in experiment [2], > 100 µM (inactive); in experiment [3], > 100 µM (inactive); in experiment [4] it was above 100 µM; in [5] it was > 100 µM (inactive); in [6], > 100 µM (inactive). The GI50 in experiment [7], in [8], in experiment [9], in [10], in experiment [11] and in experiment [12] was > 100 µM (inactive) throughout. In addition, the GI50 in [13], in experiment [14] and in [15] was > 100 µM (inactive) in each case.

On to `Nc1ncnc2c1ncn2C1OC(CSCC(F)(F)F)C(O)C1O` (stereo unspecified), for which the GI50 in experiment [1] is > 100 µM (inactive); in [2], > 100 µM (inactive); in experiment [3], > 100 µM (inactive); in [4] it was above 100 µM; in experiment [5], > 100 µM (inactive); in [6], > 100 µM (inactive). In addition, the GI50 in [7], in [8], in [9], in experiment [11], in [12] and in experiment [13] was > 100 µM (inactive) throughout. In addition, the GI50 in [14] and in experiment [15] was > 100 µM (inactive) throughout.

Regarding `Cn1nc(-c2ccccc2)c(C(=O)/C=C/c2ccc(Cl)cc2)c(N2CCOCC2)c1=O`, the GI50 is 3.89 µM (inactive) in experiment [1]; 14.3 µM (inactive) in experiment [2]; 2.74 µM in [4]; 4.42 µM (inactive) in experiment [5]; 4.22 µM (inactive) in experiment [16]; 4.22 µM (inactive) in experiment [7]. Moreover, the GI50 in [8] is 2.58 µM (inactive); in [9], 2.74 µM (inactive); in experiment [10] it was 2.45 µM (inactive); in experiment [11], 2.79 µM (inactive); in experiment [12] it was 10.5 µM (inactive); in experiment [14], 8.49 µM (inactive). Moreover, the GI50 in experiment [15] is 0.652 µM (active).

On to `CCOC(=O)N1C(c2ccccc2)C=CC(c2ccccc2)N1C(=O)OCC` (stereo unspecified), for which the GI50 in [1] is > 100 µM (inactive); in experiment [2] it was > 100 µM (inactive); in experiment [3] it was > 100 µM (inactive); in experiment [4] it was above 100 µM; in experiment [5] it was > 100 µM (inactive); in [16], > 100 µM (inactive). Also, the GI50 in experiment [7], in experiment [8], in [9], in experiment [10], in experiment [11] and in experiment [12] was > 100 µM (inactive) throughout. The GI50 in experiment [13], in [14] and in [15] was > 100 µM (inactive) in each case.

On to `OCCc1cnco1`, for which the GI50 in experiment [1], in experiment [2], in [6], in experiment [7], in experiment [8] and in experiment [9] was > 100 µM (inactive) in each case. Besides, the GI50 in [10], in experiment [11], in experiment [12], in experiment [13] and in [14] was > 100 µM (inactive) in each case.

`COc1ccc(C(=O)NCCN(C)C)c2nc3ccccc3nc12`: the GI50 was 4.93 µM (inactive) in experiment [1]; 6.01 µM (inactive) in [2]; 2.3 µM (inactive) in experiment [3]; 3.66 µM in experiment [4]; 2.79 µM (inactive) in [5]; 3.48 µM (inactive) in [6]. Besides, the GI50 was 4.21 µM (inactive) in [16]; 3.14 µM (inactive) in experiment [7]; 5.89 µM (inactive) in experiment [8]; 4.72 µM (inactive) in experiment [9]; 2.05 µM (inactive) in experiment [11]; 3.3 µM (inactive) in experiment [12]. In addition, the GI50 in experiment [13] is 5.25 µM (inactive); in experiment [14], 6.41 µM (inactive).

As to `CC1(C)CC(/C=C2/OC(=O)c3ccccc32)=C(C(N)=O)C(=O)O1`, the GI50 was > 100 µM (inactive) in experiment [1]; > 100 µM (inactive) in experiment [2]; > 100 µM (inactive) in [3]; above 100 µM in experiment [4]; > 100 µM (inactive) in experiment [6]; > 100 µM (inactive) in experiment [7]. The GI50 in [8], in [9], in [10], in experiment [11], in [12] and in experiment [13] was > 100 µM (inactive) in each case. Besides, the GI50 in experiment [14] and in [15] was > 100 µM (inactive) throughout.

As for `N#CC(C(=O)CCCC(=O)Nc1ccc(Cl)cc1Cl)c1ccc(Cl)cc1` (stereo unspecified), the GI50 in experiment [1] is > 100 µM (inactive); in experiment [2], > 100 µM (inactive); in [3], > 100 µM (inactive); in [4] it was above 100 µM; in [5], > 100 µM (inactive); in experiment [6], > 100 µM (inactive). For the same compound, the GI50 in [7], in experiment [8], in experiment [9], in experiment [11], in experiment [12] and in [13] was > 100 µM (inactive) each time. In addition, the GI50 in [15] is > 100 µM (inactive).

For `COC1(OC)C2(Cl)C(Cl)=C(Cl)C1(Cl)C1C=CC=CC12` (stereo unspecified), the GI50 in [1] is 69 µM (inactive); in experiment [2], > 100 µM (inactive); in [3], 31.6 µM (inactive); in experiment [4], 54.5 µM; in experiment [5], > 100 µM (inactive); in [6], > 100 µM (inactive). For the same compound, the GI50 in [7] is > 100 µM (inactive); in [8], > 100 µM (inactive); in [9] it was > 100 µM (inactive); in experiment [10], > 10 µM (inactive); in experiment [11], 51.6 µM (inactive); in experiment [12], > 100 µM (inactive). Moreover, the GI50 in experiment [13] was > 100 µM (inactive); in experiment [14] it was > 100 µM (inactive); in experiment [15], 45.7 µM (inactive).

With `CC1(C)C2CCC13CS(=O)(=O)N1O[C@]13C(=O)O2` (stereo partly specified), the GI50 is > 100 µM (inactive) in [1]; > 100 µM (inactive) in experiment [2]; > 100 µM (inactive) in experiment [3]; above 100 µM in experiment [4]; > 100 µM (inactive) in experiment [5]; > 100 µM (inactive) in [6]. For the same compound, the GI50 in experiment [16], in experiment [7], in experiment [8], in experiment [9], in experiment [11] and in [12] was > 100 µM (inactive) each time. Moreover, the GI50 in experiment [13] and in experiment [14] was > 100 µM (inactive) in each case.

Turning to `CC(N)Cc1ccc(C(=O)Cl)cc1` (stereo unspecified), the GI50 was > 100 µM (inactive) in experiment [1]; > 100 µM (inactive) in [3]; above 100 µM in [4]; > 100 µM (inactive) in experiment [5]; > 100 µM (inactive) in experiment [16]; > 100 µM (inactive) in experiment [7]. Moreover, the GI50 in experiment [8], in experiment [9], in [10], in experiment [11], in experiment [12] and in experiment [13] was > 100 µM (inactive) throughout. In addition, the GI50 in experiment [14] and in experiment [15] was > 100 µM (inactive) throughout.

Take `CN(C(=O)C12C3C4C1C1C2C3C41C(=O)N(C)C(C)(C)C)C(C)(C)C` (stereo unspecified): the GI50 in experiment [1] is > 50 µM (inactive); in experiment [2] it was > 50 µM (inactive); in experiment [3], > 50 µM (inactive); in [4], above 50 µM; in [5] it was > 50 µM (inactive); in experiment [16] it was > 50 µM (inactive). Also, the GI50 in experiment [7], in [8], in [10], in [11], in experiment [12] and in experiment [13] was > 50 µM (inactive) throughout. Moreover, the GI50 in experiment [14] and in [15] was > 50 µM (inactive) in each case.

On to `COc1ccc(N2C(=O)[C@@H](N=[N+]=[N-])[C@@H]2[C@H]2COC(C)(C)O2)cc1`, for which the GI50 is > 100 µM (inactive) in experiment [1]; > 100 µM (inactive) in experiment [2]; > 100 µM (inactive) in experiment [3]; above 100 µM in experiment [4]; > 100 µM (inactive) in experiment [5]; > 100 µM (inactive) in [6]. Also, the GI50 in experiment [7], in experiment [8], in [9], in [10], in experiment [11] and in experiment [12] was > 100 µM (inactive) in each case. In addition, the GI50 in [13], in [14] and in experiment [15] was > 100 µM (inactive) in each case.
